Reference: US20250049741A1, “COMPOSITION FOR PREVENTING OR TREATING ALZHEIMER'S DISEASE COMPRISING PHOSPHOLIPASE C ACTIVATOR AS AN ACTIVE INGREDIENT” (Korea University Research and Business Foundation, priority 2021, published 2025)

Key:
[1] = test system: PLCβ1; test: Western blot of PLCβ1 in rat hippocampal slices; format: cell-based, Sprague-Dawley rats; details: AβO+m-3M3FBS-treated rat hippocampal slices; similar to DMSO-treated slices
Protocol: Soluble AβO was prepared according to a previous study (BMC Biol. 2020; 18(1):7). Specifically, Aβ1-42 (Aβ) and a scrambled form of Aβ as a control peptide were purchased in powder form. Aβ and scrambled Aβ were dissolved for monomerization in 1,1,1,3,3,3-hexafluoro-2-propanol (HFIP, Sigma Aldrich, USA) at a final concentration of 1 mM, and the solution was incubated for 90 minutes. After the HFIP was evaporated, the remaining thin and clear film of Aβ or scrambled Aβ was dissolved in dimethyl sulfoxide (DMSO, Sigma Aldrich, USA) to prepare 5 mM Aβ or scrambled Aβ stocks, which were aliquoted and frozen at −20° C. Aβ or scrambled Aβ stocks were thawed and diluted to 100 μM in artificial cerebrospinal fluid (ACSF). Thereafter, Aβ or scrambled Aβ stocks were incubated for oligomerization for 18 hours. […]
Hippocampal PLCβ1 of SD rats and C57BL/6 or 5XFAD mice were prepared from homogenized hippocampi dissolved in 200 μL of RIPA buffer (Bio-Rad, USA), and were resolved on non-reducing 10% tris-glycine-sodium dodecyl sulfate-polyacrylamide gel electrophoresis (SDS-PAGE) gels (Bio-Rad, USA) using 4×Laemmli sample buffers (Bio-Rad, USA). […] Immunoreactivity was confirmed with enhanced chemiluminescence (Bio-Rad, USA) using a Fluorchem E system (ProteinSimple, USA) and analyzed with ImageJ software. […]

[2] = test system: CA1 PCs in rat hippocampal slices; test: Ex vivo eCB / S-eCB mobilization protocol: eIPSC amplitudes by whole-cell voltage-clamp; format: cell-based, Sprague-Dawley rats; details: m-3M3FBS 30 μM
From the text: To test the acute effect of AβO on hippocampal S-eCB mobilization, hippocampal slices from Sprague-Dawley rats (SD, 2 to 3 weeks old, DaeHan Biolink, Co., Ltd., Korea) were used. Male and female rats were used in all in vitro experiments. To test the chronic effect of AβO on hippocampus-dependent memory impairments caused by amyloidosis, the 5XFAD mouse model (6 to 7 months old, #34840-JAX, Jackson Laboratory, USA), which is a mouse model of Alzheimer's disease that mimics AβO depositions, was used. C57BL/6 mice (6 to 7 months old, KOATECH, Korea) were used as wild type (WT) control mice for 5XFAD mice. Male 5XFAD and C57BL/6 mice were used for all in vivo behavioral experiments. The 5XFAD mouse genotypes were identified by polymerase chain reaction (PCR) using DNA extracted from the tails of the mice. All animal-related procedures followed the guidelines of the Institutional Animal Care and Use Committee of Korea University (guidelines for SD rats: KUIACUC-2017-103, guidelines for C57BL/6 and 5XFAD mice: KUIACUC-2019-0068).
Soluble AβO was prepared according to a previous study (BMC Biol. 2020; 18(1):7). Specifically, Aβ1-42 (Aβ) and a scrambled form of Aβ as a control peptide were purchased in powder form. Aβ and scrambled Aβ were dissolved for monomerization in 1,1,1,3,3,3-hexafluoro-2-propanol (HFIP, Sigma Aldrich, USA) at a final concentration of 1 mM, and the solution was incubated for 90 minutes. After the HFIP was evaporated, the remaining thin and clear film of Aβ or scrambled Aβ was dissolved in dimethyl sulfoxide (DMSO, Sigma Aldrich, USA) to prepare 5 mM Aβ or scrambled Aβ stocks, which were aliquoted and frozen at −20° C. Aβ or scrambled Aβ stocks were thawed and diluted to 100 μM in artificial cerebrospinal fluid (ACSF). Thereafter, Aβ or scrambled Aβ stocks were incubated for oligomerization for 18 hours. The final AβO or scrambled AβO stock solution was diluted to a final concentration of 200 nM in 31.2 ml of ACSF, and rat hippocampal slices were treated with the stock solution for 20 minutes in a recovery chamber before measurement of brain signals. In control experiments for normal brain conditions using a vehicle, rat hippocampal slices were treated with 0.004% DMSO in ACSF.
The brains of SD rats were isolated following decapitation under isoflurane-induced anesthesia and transferred into ice-cold ACSF containing 126 mM NaCl, […], 1.25 mM NaH2PO4, 2 mM MgSO4, 2 mM CaCl2), 25 mM NaHCO3, and 10 mM glucose (pH 7.2 to 7.4). The ACSF was continuously oxygenated with 95% O2/5% CO2. Horizontal hippocampal slices (350 μm thickness) were obtained using a vibratome (VT1000S, Leica Biosystems, Germany) and immediately incubated at room temperature in a submerged chamber perfused with oxygenated ACSF for at least 1 hour.
To quantify eCB mobilization, the changes in eCB mobilization-induced Schaffer collateral (SC) nerve bundle stimulation-evoked inhibitory postsynaptic current (eIPSC) amplitudes were measured in CA1 PCs through the whole-cell voltage-clamp technique. The whole-cell voltage-clamp technique in CA1 PCs was performed using a MultiClamp 700B amplifier (Molecular Devices, USA) under an infrared differential interference contrast video microscope (BW51W, Olympus, Japan), using a borosilicate electrode (tip resistance: 4 to 8 MΩ) that was filled with an intracellular solution containing 145 mM CsCl, 10 mM HEPES, 2 mM EGTA, 4 mM QX-314, 4 mM Mg-ATP, 0.4 mM […], pH 7.2 to 7.3, and 270 to 280 mOsm/L. To record eIPSCs in the CA1 PCs, a stimulating electrode (A-M Systems, USA) was placed in a stratum radiatum to stimulate the SC pathway that carries CA3 PC axons. Electrical stimulation pulses of 200 to 400 μA amplitudes (20 to 40 μs) were generated using a constant current stimulator (model DS3, Digitimer Ltd., UK). eIPSCs were recorded in CA PCs every 1 second while maintaining the membrane potential at −70 mV.

## Cc1cc(C)c(S(=O)(=O)Nc2cccc(C(F)(F)F)c2)c(C)c1 [m-3M3FBS]
[1]
  PLCβ1 protein levels in AβO-treated slices: completely restored
[2]; AβO-treated rat hippocampal slices
  synergistic enhancement of the suppression of eIPSC amplitudes (S-eCB mobilization) in AβO-treated slices: completely recovered
[2]; DMSO-treated and scrambled AβO-treated rat hippocampal slices
  suppression of eIPSC amplitudes, recordings in DMSO-treated and scrambled AβO-treated slices: not significantly different
